BigSolDB 2.1

COc1ccccc1OCCNCC(O)COc1cccc2[nH]c3ccccc3c12 (stereo not drawn)
solubility (mole fraction)
Conditions	278.15 K	283.15 K	288.15 K	293.15 K	298.15 K	303.15 K	308.15 K	313.15 K
in THF	0.00043	0.00061	0.00085	0.00118	0.00167	0.00227	0.00302	0.004
in acetone	0.00064	0.00088	0.00117	0.00154	0.0021	0.00268	0.00354	0.0046
in ethanol	0.00062	0.00085	0.00112	0.00143	0.00185	0.00246	0.00306	0.00389
in ethyl acetate	0.00063	0.00086	0.00146	0.00187	0.0024	0.00294	0.00371	0.00424
in methanol	0.00063	0.00087	0.00114	0.0015	0.00201	0.00256	0.00329	0.00419
in water	0.0196	0.0232	0.0278	0.033	0.0398	0.0468	0.0552	0.0641
